SMILES strings stand for the structures. Some results are limits rather than exact numbers.

1 molecule from US20250195660A1, “INACTIVATING BACTERIA WITH ELECTRIC PULSES AND ANTIBIOTICS” (Purdue Research Foundation, priority 2018, published 2025) can be followed below.

The subject of experiment [1] is Stapphylococcus aureus (gram positive bacterium number 25923). In words: Inactivation of S. aureus by 300 ns electric pulses combined with antibiotic (CFU plating). The class given is cell-based, Staphylococcus aureus. To be noted: 30 kV/cm treatment + 20 μg/ml dose, in 10 min.
Experiment [2] concerns Esherichia coli (gram negative bacterium number 25922). Briefly: Inactivation of E. coli by 300 ns electric pulses combined with antibiotic (CFU plating). The class given is cell-based, Escherichia coli. How it is done: Equipment. Used was a capacitor based Blumlein pulse generator with a spark gap switch to produce trapezoidal EPs of 300 ns duration at the peak with rise and fall times close to 50 ns. Multiple pulses were delivered at a frequency of 1 Hz.
The samples were treated in a standard electroporation cuvette (Dot Scientific) whose resistance must match the pulse generator's impedance to prevent pulse reflection. […] Used were 2 mm cuvettes to ensure consistency between tests, and the applied voltage was measured across the cuvette using a LeCroy PPE 20 kV high voltage probe with a 1000:1 attenuation feeding into a TeleDyne LeCroy Waverunner 6 Zi Oscilloscope capable of measuring signals up to 4 GHz. Assuming a purely parallel plate geometry with minimal fringing gives an electric field E=V/d, where V is the peak voltage of the applied pulse and d is the gap distance.
Sample Preparation. These experiments assessed Stapphylococcus aureus (gram positive bacterium number 25923) from ATCC and Esherichia coli (gram negative bacterium number 25922) inoculated in luria broth (LB Broth Lennox, powder microbial growth medium. SIGMA-ALDRICH) by taking 8 mL of broth in a 50 mL sterile conical tube and incubating in a shaker for 20 h at 37° C. The sample was then diluted with fresh Luria broth until attaining an optical density of 0.25 for 100 μL on a photospectrometer (Molecular Devices) for a wavelength of 562 nm as measured in a 96-well plate. The optical density, which varies with growth or tube volume, was determined experimentally and set between 1×10^8 and 1.5×10^8 colony forming units (CFUs)/mL for the samples to be pulsed. These samples were then plated at dilutions between 10-6 and 100 (no dilution) depending on the effectiveness of the pulse treatments.
Electric Pulse Treatment Protocol. […] Although no consensus exists on a universal scaling law for applied EP “dose,” we fixed the energy density
[formula] • where N is the number of pulses and τ is the pulse duration. Fixing U for E=40, 30, and 20 kV/cm gave N=250, 445, and 1000 pulses, respectively. Cultures were plated as described below.
Cuvettes were filled with 365 μL of sample (sufficient to just cover the electrodes) and then 250 μL of molecular biology grade mineral oil was placed on top.
Added were 0.2, 2, and 20 μg/mL of each drug to the initial bacterial dilutions prior to pulsing. Samples were immediately placed on ice to minimize cell division and reduce variability. These aliquots were also used to plate individual unpulsed controls for each drug concentration.
Plating. Plating was done on standard disposable tissue culture Petri dishes from VWR (15 cm diameter, 10 mm height) and covered with 10 mL of agar in luria broth (Agar, microbiology tested powder, SIGMA-ALDRICH), which was prepared by adding 20 g of LB lennox (SIGMA-ALDRICH) and 15 g/L of agar to water and then autoclaved.
Plated were samples at dilutions of 10^−6 and 10^−3 for low and high electric field treatments, respectively, and at 10^−6 and 10^−5 for controls All samples containing 100 μL of pulsed or diluted cultures were plated on LB agar plates and counted after overnight incubation at 37° C.
Pulsing with drugs: bacterial samples of both gram-positive S. aureus and gram-negative E. coli strains were pulsed in a solution with 0.2, 2, and 20 μg/mL of tobramycin and compared to an un-pulsed drug-exposed control. Pulsing and plating were performed to ensure that the drug exposure time of the bacteria was approximately fifteen minutes.

For experiment [3], the system named is carbapenem-resistant Escherichia coli (ATCC BA-2452, NDM-1 positive). In words: Inactivation of carbapenem-resistant E. coli by 300 ns electric pulses and/or antibiotics (CFU plating). In kind it is cell-based. To be noted: 30 kV/cm NSEPs + 20 μg/mL. An excerpt: (§1) Except for rifampicin, the five other antibiotics in these examples primarily target gram-positive bacteria and are largely ineffective or not used against gram-negative bacteria in a clinical setting.
(§2) A Blumlein pulsed generator consisting of two lines comprised of twelve 2000 pF capacitors connected by inductors produced 300 ns EPs with rise-times of 30 ns and fall-times of 35 ns at a repetition frequency of 1 Hz (12). The EPs were applied to a standard 2 mm gap electroporation cuvette (Dot Scientific R) filled with a solution containing the microorganisms. Used was a Luria broth of 0.5% salinity (5 grams of NaCl/Liter) for the solution to electrically match the resistance of the sample with the impedance of the pulse generator (11Ω) to prevent signal reflection. The voltage measurements were taken using a LeCroy PPE 20 kV high voltage probe with a 1000:1 attenuation recorded by a TeleDyne LeCroy® Waverunner 6 Zi Oscilloscope with a bandwidth of 4 GHZ.
(§3) The gram-negative strains included a carbapenem-resistant Escherichia coli (ATCC® BA-2452TM, New Delhi metallo-beta-lactamase NDM-1 positive.), Klebsiella pneumoniae (ATCC® BAA-2146TM NDM-I positive), and a gentamicin, streptomycin and sulfonamide resistant Pseudomonas aeruginosa (BEI Resources NR-31040). Assessed was the gram-positive strain of methicillin resistant Staphylococcus aureus (USA300-0114 strain), which is also resistant to erythromycin and tetracycline. Samples were cultured in Luria broth (LB Broth Lennox, powder microbial growth medium, SIGMA-ALDRICH®) by taking 25 mL of broth in a 50 mL sterile conical tube and incubating in a shaker for 16 h at 37° C. Samples were diluted 50% by adding 25 mL media to the incubated sample as we plated controls for each experiment and condition.
Samples were treated in 2 mm gap cuvettes containing 365 μL of sample between the electrodes, with bio-grade mineral oil added on top of the electrode plates to prevent arcing.
To establish a common baseline for comparing different NSEP parameters, we fixed the energy density U delivered to the cuvettes according to Formula (1) (above). For 300 ns EPs, 500 EPs at 20 kV/cm and 222 EPs at 30 kV/cm delivered the same energy to the sample.
Tissue culture Petri dishes from VWR R (15 cm diameter, 10 mm height) were utilized for plating. Each plate was covered with 15 mL of Luria broth (Agar, microbiology tested powder, SIGMA-ALDRICH®), which was prepared by adding 20 g of LB Lennox (SIGMA-ALDRICH) and 15 g/L of agar to water prior to being autoclaved. The salinity of the agar was the same as the LB (0.5% NaCl) to minimize additional environmental stressors on the bacteria.
Removed was 20 μL from each cuvette and added to 180 μL of PBS in a 96-well dish in triplicate. Each well was then diluted by a ratio of 10:1 five additional times by taking 20 μL of the diluted sample into subsequent wells using multi-channel pipettes (using fresh tips for each dilution). Plated were the six dilutions of each sample two times each by adding 4 μL from each well onto the Petri dish using a multi-channel pipette, which allowed the plating of all three replicates on the same plate to achieve n=6. These plates were then cultured overnight in an incubator at 37° C., and counted the next day.

Experiment [4] deals with methicillin resistant Staphylococcus aureus (USA300-0114 strain). Briefly: Inactivation of MRSA by 300 ns electric pulses and/or antibiotics (CFU plating). The class given is cell-based. To be noted: 20 μg/mL + 30 kV/cm EPs.
Text: as §1, §2
as §3, with “condition. […]” for “condition.”
Removed was 20 μL from each cuvette and added to 180 μL of PBS in a 96-well dish in triplicate. […] These plates were then cultured overnight in an incubator at 37° C., and counted the next day.

Turning to `CO[C@H]1/C=C/O[C@@]2(C)Oc3c(C)c(O)c4c(O)c(c(/C=N/N5CCN(C)CC5)c(O)c4c3C2=O)NC(=O)/C(C)=C\C=C\[C@H](C)[C@H](O)[C@@H](C)[C@@H](O)[C@@H](C)[C@H](OC(C)=O)[C@@H]1C` [rifampicin], in experiment [1], the “additional log-reduction of S. aureus” value stood at 1.5 log. The “log reduction of E. coli” value is more than 9 log in experiment [2] (20 μg/mL + 445 pulses of 30 kV/cm, consistent with complete sterilization) and 6 log in experiment [3]. For the same molecule, in experiment [2] (20 μg/mL, EPs vs no EPs), the “synergy (additional kill off) compared to just the drug, E. coli” value stood at 4 log. For the same molecule, the “additional log-reduction of E. coli compared to pulsing alone” value in experiment [2] (EPs + 2 and 20 μg/mL) worked out at 1.5 log. In addition, the “synergy (synergistic inactivation), MRSA” value in experiment [4] is recorded as “approximately 1.5 log”.
